US20080234331A1, “Synergistic Insecticidal Mixtures for the Treatment of Seed” (Bayer CropScience AG, priority 2005, published 2008)

Tested on: Onions cv. Vaquero
Assay: Onion yield after seed treatment with insecticidal active substances
Assay type: in vivo
Conditions: for Yield in % relative to the insecticide-untreated control 1: onion seed cv. Vaquero pretreated with thiram 2 g ai/kg and carbendazim 1 g ai/kg, seed treatment, total application rate 0.18 mg ai/seed (mixture 0.09 + 0.09); for growth-promoting effect with regard to the yield (in words): onion seed treatment, same total application rate
Protocol: Onions cv. Vaquero from the Dutch company Nunhems were pretreated uniformly with the fungicidal active substances thiram (2 g ai/kg) and carbendazim (1 g ai/kg) by customary methods. Thereafter, the seed was treated as follows, using insecticidal active substances: • 1. control, no insecticides • 2. Poncho WS 70 (clothianidin) at 0.18 mg ai/seed • 3. Gaucho WS 70 (imidacloprid) at 0.18 mg ai/seed • 4. clothianidin+imidacloprid at 0.09+0.09 mg ai/seed

CN/C(=N\[N+](=O)[O-])NCc1cnc(Cl)s1 [clothianidin]
Yield in % relative to the insecticide-untreated control 1: 137% | growth-promoting effect with regard to the yield (in words): growth-promoting effect

O=[N+]([O-])/N=C1\NCCN1Cc1ccc(Cl)nc1 [imidacloprid]
Yield in % relative to the insecticide-untreated control 1: 109% | growth-promoting effect with regard to the yield (in words): growth-promoting effect
